Where two headings read alike, the source gives them in different places.
Experiments:
[1] = biological target: P2X7 (IL-1β release from THP-1 cells) (Homo sapiens (Human), UniProt Q99572); experiment: IL-1β release assay; format: cell-based
How it was run: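 THP-1 cells were differentiated with PMA 0.5 μM and primed 4 h with LPS 10 ng/ml. They were then pre-incubated 20 min with compound at 37° C and stimulated 30 min with BzATP 0.8 mM. Mature IL-1β released into the supernatant was quantified by sandwich ELISA.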

human P2X7 receptor = human P2X7 receptor (Homo sapiens (Human), UniProt Q99572); experiment: Pore permeation assay (YO PRO dye uptake); format: cell-based
[2] = THP-1 cells, LPS primed, 0.8 mM BzATP, mature IL-1β by sandwich ELISA, read-out: hTHP-1/IL-ib IC50
[3] = HEK293 transfected with human P2X7, BzATP 10 uM, YO PRO dye uptake, read-out: hP2X7 IC50

Sequence of human P2X7 receptor (Q99572 whole entry): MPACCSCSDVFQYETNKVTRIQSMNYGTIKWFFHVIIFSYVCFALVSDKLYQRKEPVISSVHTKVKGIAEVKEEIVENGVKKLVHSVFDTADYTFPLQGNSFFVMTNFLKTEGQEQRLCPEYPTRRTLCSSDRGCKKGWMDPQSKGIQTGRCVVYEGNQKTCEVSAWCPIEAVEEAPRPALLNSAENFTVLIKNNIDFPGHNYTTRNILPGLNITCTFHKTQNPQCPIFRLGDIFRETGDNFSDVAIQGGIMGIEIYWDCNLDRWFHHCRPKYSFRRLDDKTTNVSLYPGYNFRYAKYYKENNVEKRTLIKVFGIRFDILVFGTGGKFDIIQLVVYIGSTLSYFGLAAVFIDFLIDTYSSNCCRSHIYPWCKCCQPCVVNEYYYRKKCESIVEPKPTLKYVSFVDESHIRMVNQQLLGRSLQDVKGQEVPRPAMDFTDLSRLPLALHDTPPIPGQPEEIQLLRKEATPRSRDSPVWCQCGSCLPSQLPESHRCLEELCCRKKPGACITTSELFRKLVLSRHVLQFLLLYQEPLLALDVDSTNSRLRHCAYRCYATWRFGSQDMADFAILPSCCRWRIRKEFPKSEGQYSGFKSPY
Sequence of P2X7 (IL-1β release from THP-1 cells) (Q99572 whole entry): as above

| Structure (SMILES) | IC50 [1, 2] [nM] | IC50 (human P2X7 receptor) [nM] | IC50 [1] [nM] | IC50 (human P2X7 receptor; [3]) [nM] |
| --- | --- | --- | --- | --- |
| CCC1CCCC(O)(CNC(=O)c2cn(CCOC)c3cccc(Cl)c23)C1 (centres unmarked) [Compound 22, 4-chloro-N-((3-ethyl-1-hydroxycyclohexyl)methyl)-1-(2-methoxyethyl)-1H-indole-3-carboxamide] | > 1000 | 101 to 500 | – | – |
| COCCn1cc(C(=O)NC[C@]2(O)CCCC(F)(F)C2)c2c(Cl)cccc21 [Compound 20, (S)-4-chloro-N-((3,3-difluoro-1-hydroxycyclohexyl)methyl)-1-(2-methoxyethyl)-1H-indole-3-carboxamide] | – | 10 to 100 | 101 to 500 | – |
| O=C(NCCC1(O)CCCC1)c1cn(C2COC2)c2cccc(Cl)c12 [Compound 45, 4-chloro-N-(2-(1-hydroxycyclopentyl)ethyl)-1-(oxetan-3-yl)-1H-indole-3-carboxamide] | > 1000 | – | – | > 1000 |
| O=C(NCC1(O)CCC(F)(F)CC1)c1cn(CC2CCOC2)c2cccc(Cl)c12 (centres unmarked) [Compound 147, 4-chloro-N-((4,4-difluoro-1-hydroxycyclohexyl)methyl)-1-((tetrahydrofuran-3-yl)methyl)-1H-indole-3-carboxamide] | – | 10 to 100 | 10 to 100 | – |
| O=C(NC[C@@H]1CCCC[C@H]1O)c1cn(C2COC2)c2cccc(Cl)c12 [Compound 87] | > 1000 | 101 to 500 | – | – |
| COCCn1cc(C(=O)NCC2(c3ccc(C(F)(F)F)cc3)CCOCC2)c2c(Cl)cccc21 [Compound 38] | – | 10 to 100 | 101 to 500 | – |
| O=C(NCC1CC(C(F)(F)F)CC(F)(F)C1)c1cn(C2COC2)c2cccc(Cl)c12 (centres unmarked) [Compound 91, 4-chloro-N-((3,3-difluoro-5-(trifluoromethyl)cyclohexyl)methyl)-1-(oxetan-3-yl)-1H-indole-3-carboxamide] | – | 10 to 100 | 101 to 500 | – |
| O=C(NCC1(O)CCCC(F)(F)C1)c1cn(CC2CCNC2)c2cccc(Cl)c12 (centres unmarked) [Compound 159, 4-chloro-N-((3,3-difluoro-1-hydroxycyclohexyl)methyl)-1-(pyrrolidin-3-ylmethyl)-1H-indole-3-carboxamide] | – | 10 to 100 | 101 to 500 | – |
| O=C(NCC1(O)CCC(F)(F)CC1)c1cn(CCC(F)F)c2cccc(Cl)c12 [Compound 10, 4-Chloro-1-(3,3-difluoro-propyl)-1H-indole-3-carboxylic acid (4,4-difluoro-1-hydroxy-cyclohexylmethyl)-amide] | – | 10 to 100 | 101 to 500 | – |
| COCCn1cc(C(=O)NCC2(c3ccccc3)CCCCC2)c2c(Cl)cccc21 [Compound 39, 4-chloro-1-(2-methoxyethyl)-N-((1-phenylcyclohexyl)methyl)-1H-indole-3-carboxamide] | – | 10 to 100 | 101 to 500 | – |
| CC1(Cn2cc(C(=O)NCC3CCC(F)(F)CC3)c3c(Cl)cccc32)CCN1 (centres unmarked) [Compound 152, 4-chloro-N-((4,4-difluorocyclohexyl)methyl)-1-((2-methylazetidin-2-yl)methyl)-1H-indole-3-carboxamide] | – | 10 to 100 | 500 to 999 | – |
| O=C(NCC1CCC(F)(F)CC1)c1cn(CC2CCOC2)c2cccc(Cl)c12 (centres unmarked) [Compound 148, 4-chloro-N-((4,4-difluorocyclohexyl)methyl)-1-((tetrahydrofuran-3-yl)methyl)-1H-indole-3-carboxamide] | – | 10 to 100 | 10 to 100 | – |
| CC(C)OCCn1cc(C(=O)NCC2CCC(F)(F)CC2)c2c(Cl)cccc21 [Compound 128] | – | 101 to 500 | 101 to 500 | – |
| COCCn1cc(C(=O)NCCc2cccs2)c2c(Cl)cccc21 [Compound 30, 4-Chloro-1-(2-methoxy-ethyl)-1H-indole-3-carboxylic acid (2-thiophen-2-yl-ethyl)-amide] | – | 10 to 100 | 101 to 500 | – |
| COCCn1cc(C(=O)NC[C@@]2(O)CCCC(F)(F)C2)c2c(Cl)cccc21 [Compound 21, (R)-4-chloro-N-((3,3-difluoro-1-hydroxycyclohexyl)methyl)-1-(2-methoxyethyl)-1H-indole-3-carboxamide] | – | – | 10 to 100 | < 10 |
| O=C(NCC1(O)CCC(F)(F)CC1)c1cn(C[C@@H]2CCCO2)c2cccc(Cl)c12 [Compound 134, (S)-4-chloro-N-((4,4-difluoro-1-hydroxycyclohexyl)methyl)-1-((tetra hydrofuran-2-yl)methyl)-1H-indole-3-carboxamide] | – | 10 to 100 | 101 to 500 | – |
| O=C(NCC1(O)CCCC(F)(F)C1)c1cn(CCN2CCCC2=O)c2cccc(Cl)c12 (centres unmarked) [Compound 188, 4-chloro-N-((3,3-difluoro-1-hydroxycyclohexyl)methyl)-1-(2-(2-oxopyrrolidin-1-yl)ethyl)-1H-indole-3-carboxamide] | – | 10 to 100 | 10 to 100 | – |
| C[C@@H]1CCC[C@](O)(CNC(=O)c2cn(CC3CCCO3)c3cccc(Cl)c23)C1 (stereo partly drawn) [Compound 143, 4-chloro-N-(((1R,3R)-1-hydroxy-3-methylcyclohexyl)methyl)-1-((tetrahydrofuran-2-yl)methyl)-1H-indole-3-carboxamide] | – | 10 to 100 | 101 to 500 | – |
| O=C(NCC1CCCC(C(F)(F)F)C1)c1cn(C2CCOC2)c2cccc(Cl)c12 (centres unmarked) [Compound 112, 4-Chloro-1-(tetrahydro-furan-3-yl)-1H-indole-3-carboxylic acid (3-trifluoromethyl-cyclohexylmethyl)-amide] | – | 10 to 100 | 101 to 500 | – |
